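Test compounds were applied to cells in 96-well plates for 48 hours at 5 doses. GI50 marks 50% less growth. TGI: total growth inhibition.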

What all share (test): NCI-60 cell line screen, 48 h
Assay [1] deals with TK-10 renal.
Assay [2] relates to UACC-257 melanoma.
Assay [3] has as its system HS 578T breast.
Assay [4] has as its system DU-145 prostate.
Assay [5] has as its system K-562 leukemia.
Assay [6] has as its system SF-268 CNS.
For assay [7], the system named is HOP-62 NSCLC.
The subject of assay [8] is KM12 colon.
The test system of assay [9] is OVCAR-4 ovarian.
For assay [10], the system named is NCI-H522 lung.

Regarding `c1ccc(Cc2nc3ccc(Nc4ncnc5ccccc45)cc3[nH]2)cc1`, the GI50 in assay [1] is 5.85 µM; in assay [2], over 25 µM; in assay [3] it was over 25 µM; in [4], over 25 µM; in assay [5] it was over 25 µM; in assay [6], over 25 µM. In addition, the GI50 was over 25 µM in assay [7], over 25 µM in assay [8], over 25 µM in [9] and over 15.1 µM in [10]. The TGI in assay [1], in assay [2], in [3], in [4], in [5] and in [6] was over 25 µM throughout. Also, the TGI in assay [7], in assay [8], in assay [9] and in [10] was over 25 µM throughout.

For `COP(=O)(OC)C(NC(c1ccccc1)c1ccccc1)c1ccc2c(c1)OCO2` (stereo unspecified), the GI50 in assay [1] was 44.5 µM; in assay [2] it was 31.4 µM; in assay [3], 27.4 µM; in assay [4], 26.6 µM; in assay [5], 20.7 µM; in [6] it was 29.2 µM. For the same compound, the GI50 is 21.5 µM in assay [7], 30 µM in [8], 30.5 µM in [9] and 24.5 µM in assay [10]. For the same compound, the TGI in assay [1] was over 100 µM; in assay [2], 89.7 µM; in assay [3], 59.9 µM; in [4], 60.5 µM; in assay [5], 65 µM; in [6], 91.8 µM. For the same compound, the TGI was determined as 52.2 µM in assay [7], 81.3 µM in assay [8], 89.9 µM in assay [9] and 70 µM in [10].

On to `Cc1c(C#N)cccc1-c1cc(-c2cn(Cc3cccc(C(C)(C)O)n3)nn2)nc(N)n1`, for which the GI50 in [1] was 18.2 µM; in assay [2] it was 27.7 µM; in assay [3], 25.6 µM; in [4], 37.1 µM; in assay [5], 13.4 µM; in assay [6], 45.4 µM. Besides, the GI50 in assay [7] was 22.2 µM; in [8] it was 47.4 µM; in assay [9], 9.69 µM; in [10] it was 12.4 µM. The TGI in assay [1], in assay [2], in [3], in assay [4], in assay [5] and in assay [6] was over 100 µM in each case. The TGI in assay [7], in assay [8], in [9] and in assay [10] was over 100 µM each time.

In the case of `CCCC[C@H]1C(=O)O[C@H](C)[C@H](NC(=O)c2cccc(NC=O)c2O)C(=O)O[C@@H](C)[C@@H]1OC(=O)CC(C)C`, the TGI in assay [1] amounted to 50.6 µM; in assay [2], 69.6 µM; in assay [3] it was 37.7 µM; in [4] it was 40.7 µM; in [5], 57.7 µM; in assay [6], 35.5 µM. Besides, the TGI in assay [7] amounted to 33.2 µM; in assay [8], 30.8 µM; in assay [9], 63.4 µM; in [10] it was 31.6 µM.

Turning to `C(=N\Nc1ccccn1)/c1ccccn1`, the TGI was over 100 µM in assay [1]; over 100 µM in assay [3]; over 100 µM in assay [5]; over 23.4 µM in [6]; over 100 µM in assay [7]; over 100 µM in assay [8]. This compound came in with a TGI in [10] of over 100 µM. The GI50 is 0.453 µM in assay [2]; 1.41 µM in assay [3]; 0.324 µM in assay [4]; 0.412 µM in assay [5]; 0.309 µM in assay [6]; 0.38 µM in assay [7]. The GI50 in assay [8] is 0.47 µM; in assay [9], 0.26 µM; in [10] it was 0.71 µM.
